Reference: patent US6558671B1, “Cysteine-depleted peptides recognized by A3-restricted cytotoxic lymphocytes, and uses therefor” (The University of Virginia Patent Foundation, priority 1997, dated 2003)
“Also recorded” adds a separate entry of the source. Read-outs that look alike come from different tables or passages of the source.

What was measured:
[1] = tested on: HLA-A1-restricted VMM15 CTL; assay: 4-hour chromium release assay, peptide-pulsed C1R-A1 targets with VMM15 CTL; assay type: cell-based, human; conditions: for CTL recognition compared with the wild-type peptide: alanine or serine substituted peptides, FIG. 8; for reconstitution of an epitope for VMM15 CTL / recognition by VMM15 CTL: C1R-A1 cells pulsed with synthetic peptide at 0.1 to 10 uM, FIG. 3; for recognition by VMM15 CTL in peptide screening: screen of tyrosinase peptides matching the HLA-A1 motif, one experiment with 48 peptides; for recognition of peptide-pulsed C1R-A1 cells in dose-titration assay: HPLC-purified peptides, FIG. 7
VMM12 CTL = assay: 4-hour chromium release assay, peptide-pulsed C1R-A1 targets with VMM12 CTL; assay type: cell-based, human; conditions: C1R-A1 cells pulsed with peptide at 1 to 0.01 μM; FIG. 4
VMM15 CTL = assay: Cold target inhibition assay with VMM15 CTL; assay type: cell-based, human; conditions: for inhibition of lysis of labeled peptide-pulsed targets by unlabeled targets pulsed with the peptide: VMM15 EBV targets pulsed at 20 μg/ml, effector-to-labeled target ratio 10:1, FIG. 9
Procedure: FIG. 9. […] (SEQ ID NO:73) for recognition by VMM15 CTL. […] (SEQ ID NO:79), or no peptide, as indicated. Increasing numbers of these various unlabeled targets were pre-incubated with VMM15 CTL for 1 hour at 37° C. Labeled (hot) targets were then added for an additional 4 hour co-culture at a final effector-to-labeled target ratio of 10:1.
(SEQ ID NO:19), and because of the similar dose-titration curves observed for CTL recognition (FIG. […] (SEQ ID NO:19)) of both peptides adopt a similar conformation when bound to HLA-A1. A cold target inhibition assay was performed with peptide-pulsed target cells to test that hypothesis.

H-Y specific CTL = conditions: cited from earlier work
[2] = C1R-A1 targets, E:T 25:1, FIG. 8A, read-out: half-maximal lysis, nonamer

Sequence: DAEKADICTDEY [dodecamer with alanine replacing the cysteine at position 5]
- EC50 ([1]; C1R-A1 targets, E:T 10:1, FIG. 8B, read-out: half-maximal lysis, dodecamer): ~100 nM
- CTL recognition compared with the wild-type peptide [1]: significantly greater recognition

Sequence: DAEKCDIATDEY [dodecamer with alanine substituted for the cysteine at position 8]
- CTL recognition compared with the wild-type peptide [1]: prevented recognition at every concentration tested

Sequence: DAEKCDICTDEY
- reconstitution of an epitope for VMM15 CTL / recognition by VMM15 CTL [1]: recognized; also recorded: reconstituted
- EC50 ([1]; C1R-A1 targets, E:T 10:1, FIG. 8B, read-out: half-maximal sensitization of target cells for lysis, dodecamer): 10000 nM
- recognition by VMM15 CTL in peptide screening [1]: recognized
- reconstitution of an epitope for VMM12 CTL (VMM12 CTL): reconstituted an epitope for these VMM12 CTL, although weakly
- inhibition of lysis of peptide-pulsed targets by cold wild-type VMM15 tumor cells (VMM15 CTL; targets pulsed with peptide at 50 μg/ml): can be inhibited

Sequence: DAEKSDICTDEY [dodecamer with serine replacing the more N-terminal cysteine]
- inhibition of lysis of labeled peptide-pulsed targets by unlabeled targets pulsed with the peptide (VMM15 CTL): competes

Sequence: EKCDICTDEY
- reconstitution of an epitope for VMM15 CTL / recognition by VMM15 CTL [1]: recognized; also recorded: reconstituted
- recognition of peptide-pulsed C1R-A1 cells in dose-titration assay ([1]; E:T 25:1): equally reactive
- recognition by VMM15 CTL in peptide screening [1]: recognized

Sequence: FIDSYICQV
- effect of cysteinylation of the cysteine on recognition (H-Y specific CTL): improving recognition by one clone, and reducing recognition by another

Sequence: KADICTDEY [nonamer with alanine replacing the cysteine at position 2]
- EC50 [1, 2]: 20 nM
- CTL recognition compared with the wild-type peptide [1]: significantly greater recognition

Sequence: KCDIATDEY [nonamer with alanine substituted for the cysteine distal to the N-terminus]
- CTL recognition compared with the wild-type peptide [1]: not discernibly more effective than the wild-type peptide

Sequence: KCDICTDEY
- reconstitution of an epitope for VMM15 CTL / recognition by VMM15 CTL [1]: reconstitutes an epitope for VMM15 CTL; also recorded: most effective; also recorded: reconstituted
- half-maximal lysis ([1]; Example A1-1): approximately 1 ug/ml
- EC50 ([1]; Example A1-1, read-out: half-maximal lysis): ~1000 nM
- recognition of peptide-pulsed C1R-A1 cells in dose-titration assay ([1]; E:T 25:1): equally reactive
- recognition by VMM15 CTL in peptide screening [1]: recognized

Sequence: KCDISTDEY [nonamer with serine substituted for the cysteine distal to the N-terminus]
- CTL recognition compared with the wild-type peptide [1]: not discernibly more effective than the wild-type peptide

Sequence: KSDICTDEY [nonamer with serine replacing the cysteine at position 2]
- EC50 [1, 2]: 2 nM
- CTL recognition compared with the wild-type peptide [1]: significantly greater recognition
- inhibition of lysis of labeled peptide-pulsed targets by unlabeled targets pulsed with the peptide (VMM15 CTL): similarly inhibited
